Measured values from patent EP0612246B1, “PHARMACEUTICAL COMPOSITIONS OF GALLIUM COMPLEXES OF 3-HYDROXY-4-PYRONES” (BERNSTEIN, Lawrence Richard, priority 1991, dated 1993).

Legend:
[1] = Oral bioavailability study in rabbits: serum gallium by graphite furnace atomic absorption after oral gavage; type: in vivo, New Zealand white rabbits; details: for Mean gallium content of rabbit serum: 10 mg elemental gallium per kg, fasted 18 hours, 3 animals
Method: A test of the oral bioavailability of the 3:1 ethyl maltol:gallium complex in rabbits was conducted. In this test, the complex was given to rabbits and compared to a solution of gallium nitrate. Six female New Zealand white rabbits weighing between 2.68 and 2.91 kg were used, and were not fed for 18 hours before starting the experiment. A suspension of the 3:1 gallium ethyl maltol complex in double distilled water was prepared with a concentration of 10 mg elemental gallium per 4 ml of suspension. […] A small amount of solid sodium carbonate was added to the latter solution to bring the pH up to about 6. Each of the two solutions was given to three rabbits by oral gavage (through a tube inserted through the mouth to the stomach) in the amount of 4 ml per kg of body weight. The stomach tubes were flushed by three ml of water following administration of the solutions.
Six ml of blood was taken from each rabbit at 1 hour, 2 hours, 4 hours, 8 hours, and 24 hours following administration of the solutions, and the serum separated and frozen. Control samples of blood were taken 24 hours earlier. The frozen serum samples were then sent to an independent testing laboratory for determination of the gallium contents by graphite furnace atomic absorption analysis. The testing laboratory received numbered serum samples, and never had any knowledge of the experimental conditions used to produce the samples. Due to uncertainties in the analytical procedures for gallium in serum, the relative proportions of gallium in the serum samples are considered more significant than the actual reported concentrations.
It is important to note that no attempt was made to counteract the adverse effects of the 3:1 gallium ethyl maltol complex being exposed to the acidic conditions of the stomach. This study should therefore be considered to give a minimal value for the oral bioavailability of the gallium ethyl maltol complex compared to gallium nitrate.

[2] = type: physicochemical
Method: The stability of the neutral 3:1 maltol:gallium complex was studied in aqueous solutions at various pH values. The complex was studied at two concentrations in double distilled deionized water: 2.5 X 10^-6 M and 1.0 X 10^-2 M. The pH was adjusted by adding either 1N HCl or 1N Na2CO3. The stability of the complex was determined using ultraviolet spectroscopy over the region 200-450 nm at 25°C. Several absorption peaks are observed in this range, including those at about 212-217 nm, 248 nm, 273 nm, 318 nm, and 385 nm. An isobesic point occurs over much of the pH range at about 290 nm. In the very dilute solutions (2.5 X 10^-6 M), the neutral 3:1 complex appears to be stable from about pH 4.5 to 9.5. For the less dilute solutions (1.0 X 10^-2 M), the determination was more difficult due to the very high absorbance.

Compound: CCc1occc(=O)c1[O][Ga]([O]c1c(CC)occc1=O)[O]c1c(CC)occc1=O [gallium ethyl maltol]
- absorption compared to gallium nitrate of equal volume and gallium concentration ([1]; rabbit, in vivo, po): significantly higher amounts

Compound: Cc1occc(=O)c1[O-].Cc1occc(=O)c1[O-].Cc1occc(=O)c1[O-].[Ga+3] [gallium maltol]
- stability region (pH) [2]: very similar to that of the highly dilute solution, possibly slightly wider

Compound: gallium nitrate
- Mean gallium content of rabbit serum ([1]; 1 hour after oral gavage): 51 ng/mL
- Mean gallium content of rabbit serum ([1]; 2 hours after oral gavage): 99 ng/mL
- Mean gallium content of rabbit serum ([1]; 4 hours after oral gavage): 118 ng/mL
- Mean gallium content of rabbit serum ([1]; 8 hours after oral gavage): 103 ng/mL
- Mean gallium content of rabbit serum ([1]; 24 hours after oral gavage): 64 ng/mL
